Each structure is given as a SMILES string. pEC50, pIC50: −log10 of the molar value. Some results are limits rather than exact numbers.

For data set [1], the target named is T1, NACHT, LRR and PYD domains-containing protein 3 (Mus musculus, UniProt Q8R4B8). The experiment in a line: Inhibition of NLRP3 in mouse BMDM assessed as reduction in IL-1beta production preincubated for 3 hrs followed by ATP measured after 45 mins by ELISA assay. Format: cell-based. Background: An ELISA detects its analyte on a solid surface through an enzyme-linked reagent.
T1 sequence (Q8R4B8 whole entry, the tested form may be a part): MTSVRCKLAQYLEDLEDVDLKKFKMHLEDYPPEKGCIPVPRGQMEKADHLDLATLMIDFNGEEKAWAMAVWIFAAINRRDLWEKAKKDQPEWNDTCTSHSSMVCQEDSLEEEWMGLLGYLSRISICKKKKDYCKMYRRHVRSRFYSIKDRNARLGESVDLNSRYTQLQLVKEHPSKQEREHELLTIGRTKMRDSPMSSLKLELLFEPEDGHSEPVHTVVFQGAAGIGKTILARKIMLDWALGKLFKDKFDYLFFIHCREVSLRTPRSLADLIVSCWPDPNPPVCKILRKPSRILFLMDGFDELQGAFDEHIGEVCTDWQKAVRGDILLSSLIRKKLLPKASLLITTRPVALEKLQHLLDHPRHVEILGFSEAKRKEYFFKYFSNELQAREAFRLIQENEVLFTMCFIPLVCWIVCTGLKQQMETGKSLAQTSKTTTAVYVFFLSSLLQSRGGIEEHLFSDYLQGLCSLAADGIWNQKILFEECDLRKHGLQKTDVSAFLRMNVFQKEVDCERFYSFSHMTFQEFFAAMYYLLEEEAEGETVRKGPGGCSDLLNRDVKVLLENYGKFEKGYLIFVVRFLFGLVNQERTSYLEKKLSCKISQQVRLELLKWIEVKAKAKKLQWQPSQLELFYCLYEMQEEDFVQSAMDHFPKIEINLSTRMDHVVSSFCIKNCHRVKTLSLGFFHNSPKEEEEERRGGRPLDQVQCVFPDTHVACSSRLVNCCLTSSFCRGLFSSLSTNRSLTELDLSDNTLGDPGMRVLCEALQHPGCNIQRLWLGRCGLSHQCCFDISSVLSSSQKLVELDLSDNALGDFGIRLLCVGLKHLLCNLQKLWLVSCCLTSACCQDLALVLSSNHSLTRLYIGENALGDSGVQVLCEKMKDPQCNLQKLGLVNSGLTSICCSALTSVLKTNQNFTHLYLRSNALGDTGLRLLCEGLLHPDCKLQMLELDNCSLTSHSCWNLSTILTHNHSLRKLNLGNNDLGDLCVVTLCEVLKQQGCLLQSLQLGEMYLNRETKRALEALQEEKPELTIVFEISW

In data set [2] the target is T2, NACHT, LRR and PYD domains-containing protein 3 (Homo sapiens, UniProt Q96P20). The experiment in a line: Inhibition of NLRP3 in human MDM cells assessed as reduction in IL-1beta production measured after 3 hrs by AlphaLISA assay. Format: cell-based.
T2 sequence (Q96P20 whole entry, the tested form may be a part): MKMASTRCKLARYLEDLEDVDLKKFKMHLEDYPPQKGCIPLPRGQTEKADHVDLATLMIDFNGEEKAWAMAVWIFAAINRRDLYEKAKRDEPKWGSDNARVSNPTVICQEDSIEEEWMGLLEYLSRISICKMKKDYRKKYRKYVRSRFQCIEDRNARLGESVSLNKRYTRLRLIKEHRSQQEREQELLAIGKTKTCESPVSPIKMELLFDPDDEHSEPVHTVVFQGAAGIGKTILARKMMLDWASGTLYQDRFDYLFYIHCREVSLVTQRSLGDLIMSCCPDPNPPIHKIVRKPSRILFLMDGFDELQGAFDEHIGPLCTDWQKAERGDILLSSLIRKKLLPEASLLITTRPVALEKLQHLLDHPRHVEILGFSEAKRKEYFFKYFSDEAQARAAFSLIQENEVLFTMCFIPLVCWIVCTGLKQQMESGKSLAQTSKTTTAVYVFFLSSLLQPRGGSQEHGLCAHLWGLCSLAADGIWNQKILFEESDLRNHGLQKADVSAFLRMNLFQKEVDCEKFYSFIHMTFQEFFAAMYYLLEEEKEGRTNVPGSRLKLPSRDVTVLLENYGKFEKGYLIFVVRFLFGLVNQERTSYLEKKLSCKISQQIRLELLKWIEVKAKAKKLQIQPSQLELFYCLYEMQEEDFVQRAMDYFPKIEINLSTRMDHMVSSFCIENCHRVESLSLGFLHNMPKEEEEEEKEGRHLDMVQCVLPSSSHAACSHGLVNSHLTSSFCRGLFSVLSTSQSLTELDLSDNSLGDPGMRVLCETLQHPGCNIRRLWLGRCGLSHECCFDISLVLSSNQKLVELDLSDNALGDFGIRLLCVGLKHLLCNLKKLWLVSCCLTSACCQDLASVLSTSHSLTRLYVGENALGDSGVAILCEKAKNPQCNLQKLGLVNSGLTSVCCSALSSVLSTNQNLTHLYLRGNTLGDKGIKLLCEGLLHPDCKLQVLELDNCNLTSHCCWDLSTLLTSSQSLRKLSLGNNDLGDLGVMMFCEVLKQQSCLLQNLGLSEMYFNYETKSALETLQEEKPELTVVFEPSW
Data set [3] in a line: Inhibition of NLRP3 in PBMC cells (unknown origin) assessed as reduction in IL-1beta production measured after 2 hrs by ELISA assay. Format: cell-based.
The target in data set [4] is T1, NACHT, LRR and PYD domains-containing protein 3. The experiment in a line: Inhibition of NLRP3 in mouse BMDM cells assessed as reduction in IL-1beta production preincubated for 30 mins followed by ATP addition measured after 45 mins by ELISA assay. Format: cell-based.
The nature of data set [5]: Inhibition of NLRP3 in LPS induced PBMC (unknown origin) assessed as reduction in IL-1beta production preincubated 0.5 hrs followed by nigericin addition measured after 1 hrs by ELISA assay. Format: cell-based.
Data set [6] deals with T2, NACHT, LRR and PYD domains-containing protein 3. The experiment in a line: Inhibition of NLRP3 in human PBMC cells assessed as reduction in Il-1beta production at 0.5 uM relative to control. The class given is cell-based.
Data set [7] concerns THP-1. The experiment in a line: Induction of pyroptosis in human THP-1 cells by AlphaLisa assay. Format: functional, cell-based. A general note: In Alpha technology, singlet oxygen from a donor bead excites a nearby acceptor bead.
Data set [8] concerns the target T2, NACHT, LRR and PYD domains-containing protein 3. The experiment in a line: Inhibition of NLRP3 in human THP-1 cells assessed as reduction in IL-1beta production by AlphaLISA assay. Format: cell-based.
Data set [9] shares this target. The experiment in a line: Inhibition of NLRP3 in human PBMC cells assessed as reduction in IL-1beta production preincubated for 30 mins followed by LPS addition measured after 6 hrs. The class given is cell-based.
The target is the same in data set [10]. The experiment in a line: Inhibition of NLRP3 in human THP-1 cells assessed as reduction in IL-1beta production. The class given is cell-based.
The target of data set [11] is T1, NACHT, LRR and PYD domains-containing protein 3. The experiment in a line: Inhibition of NLRP3 in mouse BMDM cells assessed as reduction in IL-1beta production measured after 3 hrs. Format: cell-based.
For data set [12] the target is unchanged. The experiment in a line: Inhibition of NLRP3 in LPS induced mouse BV-2 cells assessed as reduction in IL-1beta production pretreated for 30 mins followed by nigericin addition measured after 2 hrs by ELISA assay. Format: cell-based.
Data set [13] has the same target. The experiment in a line: Inhibition of NLRP3 in mouse BMDM cells assessed as reduction in IL-1beta production. Format: cell-based.
Data set [14] has the same target. The experiment in a line: Inhibition of NLRP3 in mouse J774A.1 cells assessed as reduction of IL-1beta production. The class given is cell-based, J774.A1.
Data set [15] is described as follows: Oral bioavailability in Sprague-Dawley rat measured upto 24 hrs by LC-MS/MS analysis. The class given is ADME, organism-based. The note with it: in vivo.
In data set [16] the target is T2, NACHT, LRR and PYD domains-containing protein 3. The experiment in a line: Inhibition of NLRP3 in human THP-1 cells assessed as reduction in IL-1beta production pre incubated for 3 hrs followed by nigericin addition measured after 1 hrs by resazurin staining based assay. Format: cell-based. On the technique in general: Resazurin is reduced to fluorescent resorufin, in cell work by metabolically active cells.

For data set [17] the target is unchanged. The experiment in a line: Inhibition of NLR3 in human Whole blood cell assessed as reduction in IL-1beta production preincubated for 0.5 hrs followed by LPS treatement for […] and further addition of ATP measured after 45 mins by ELISA assay. Format: tissue-based.
The test system of data set [18] is THP-1. The experiment in a line: Antiinflammatory activity against PMA-differentiated human THP-1 cells assessed as reduction of IL-1beta production measured after 2 hrs. Format: functional, cell-based. The note with it: THP-1, 2 h.
Data set [19] deals with T1, NACHT, LRR and PYD domains-containing protein 3. The experiment in a line: Inhibition of NLRP3 in LPS induced mouse BMDM cells assessed as reduction in IL-1beta production measured after 30 mins by ELISA assay. The class given is cell-based.
The target of data set [20] is T2, NACHT, LRR and PYD domains-containing protein 3. The experiment in a line: Inhibition of NLRP3 in human THP-1 cells assessed as reduction in IL-1beta production measured after 1 hrs by ELISA assay. Format: cell-based.
Data set [21] has the same target. The experiment in a line: Inhibition of NLRP3 in LPS induced human PBMC cells assessed as reduction in IL-1beta preincubated for 30 mins followed by ATP addition measured after 1 hrs HTRF assay. Format: cell-based.

What is called pIC50 is the IC50 on a negative log10 scale, so that one unit is a factor of ten. Consider `C[C@@]1(O)CCCc2oc(S(=O)(=O)NC(=O)Nc3c4c(cc5c3CCC5)CCC4)cc21`, for which, in data set [1], the negative logarithm of the IC50 (pIC50) is > 7.00.

As to `CC(C)(O)c1ccc2c(c1)[S+]([O-])(NC(=O)Nc1c3c(cc4c1CCC4)CCC3)=NC2=O` (stereo unspecified), in data set [2], the negative-log IC50 (pIC50) is > 6.00.

Turning to `Cn1cc(N(C[C@@H]2CCCO2)CS(=O)(=O)NC(=O)Nc2c3c(cc4c2CC4)CCC3)cn1`, the negative logarithm of the IC50 (pIC50) in data set [3] was > 7.00.

Take `CC(C)c1cc(F)cc(C(C)C)c1NC(=O)NS(=O)(=O)c1cc2c(o1)CCCC2(C)O` (stereo unspecified): the negative logarithm of the IC50 (pIC50) in data set [4] is > 7.00.

Take `CC(C)OC(=O)C(Cc1ncccn1)OC(=O)N[C@@H](C)c1ccc(C(F)(F)F)cc1` (stereo partly specified): the pIC50 in data set [5] was > 6.00.

As a reminder, the inhibition is the drop in the measured response relative to a control, in per cent. Turning to `C=C1C(=O)[C@@]23C(CC[C@@H]1[C@H]2OC(=O)/C=C/c1ccc(N2CCOCC2)cc1)[C@@]12CO[C@]3(O)[C@@H](O)[C@@H]1C(C)(C)CC[C@@H]2O` (stereo partly specified), in data set [6], the inhibition is 2.94%.

Take `Cc1cc(Cl)cc(O)c1-c1ccc2oc(N[C@H]3CCCN4CCC[C@H]34)nc2n1`: the pIC50 with THP-1 [7] is 9.22.

Regarding `O=C1Nc2c(ccc3c2CCC3)-c2ccnc(c2)OCCn2cc(F)c(n2)S(=O)(=O)N1`, in data set [8], the pIC50 is > 7.00.

As a reminder, the pEC50 is the EC50 on a negative log10 scale, so that one unit is a factor of ten. Turning to `COC(=O)C12CC(NC(=O)Cn3nc(C(C)C)c(OCC(C)C)cc3=O)(C1)C2`, the negative-log EC50 (pEC50) in [9] was 8.00.

With `CC(C)c1cc(F)cc(C(C)C)c1NC(=O)N=[S+](N)([O-])c1ccccc1-c1ccccc1` (stereo unspecified), in [10], the negative-log IC50 (pIC50) is < 4.52.

For the compound `Cc1cc(Cl)cc(O)c1-c1ccc2oc(N[C@@H]3CCCN4CCC[C@@H]34)nc2n1`, the negative logarithm of the IC50 (pIC50) in the data set on THP-1 [7] was 7.56.

For the compound `CC1(O)CCCc2oc(S(=O)(=O)NC(=O)Nc3c4c(c(Br)c5c3CCC5)CCC4)cc21` (stereo unspecified), the pIC50 in data set [11] is > 7.00.

Regarding `CC(C)(O)c1coc(S(=O)(=O)NC(=O)Nc2c3c(cc4c2CCC4)CCC3)c1`, the pIC50 in [12] is 5.41.

As for `CCOC(=O)C(Cn1cc(F)cn1)OC(=O)Nc1c2c(cc3c1CCC3)CCC2` (stereo unspecified), the pIC50 in [5] is > 8.00.

As to `CC(C)c1nn(CC(=O)Nc2ccc3nncn3n2)c(=O)cc1Nc1ccccc1`, the pEC50 in [9] is < 4.82.

Take `O=C(CBr)C1CCC1`: the pIC50 in data set [13] is ~5.30.

`O=C(/C=C/S(=O)(=O)c1ccccc1Cl)NCCc1ccccc1`: the negative logarithm of the IC50 (pIC50) in data set [14] was 6.04.

By bioavailability is commonly meant the share of a dose that reaches the circulation, judged against a reference dose that is usually intravenous. The low end stands for poor availability, the high end for good availability. For `CCN1CCC(S(=O)(=O)NC(=O)Nc2c3c(cc4c2CCC4)CCC3)CC1` [SELNOFLAST], the bioavailability in data set [15] stood at 76.7%. For the same compound, in data set [16], the pIC50 is ≥ 6.00.

Regarding `Cc1ccc(S(=O)(=O)/C=C/C#N)cc1`, the negative-log IC50 (pIC50) in data set [14] was 5.81.

As for `O=C(Nc1c2c(cc3c1CCC3)CCC2)NS(=O)(=O)c1cc2c(o1)C1CCN(CC1)C2`, the pIC50 in data set [17] is > 6.00.

For the compound `Cc1nc(C(C)C)c(NC(=O)NS(=O)(=O)c2cc(C(C)(C)O)co2)n1-c1ccncc1`, the negative-log IC50 (pIC50) in data set [10] is ≥ 6.60.

As for `CC(C)c1nn(CC(=O)Nc2ccc3nncn3c2)c(=O)cc1Oc1ccccc1`, in data set [9], the negative-log EC50 (pEC50) was < 4.82.

Regarding `CC(C)c1nn(CC(=O)Nc2ccc3nncn3n2)c(=O)cc1N1CC2CC2C1` (stereo unspecified), in data set [9], the negative-log EC50 (pEC50) is 7.05.

As for `CN1CCC(Oc2cc(-c3ccc4c(c3NC(=O)NS(=O)(=O)C3CC3)CCC4)ccn2)CC1`, the pIC50 in data set [16] is ≥ 6.60.

Turning to `COC(=O)c1cccc(C(=O)NC2(C(=O)Nc3c4c(cc5c3CCC5)CCC4)CC2)c1`, the negative logarithm of the IC50 (pIC50) in [12] is 5.69.

For the compound `Cc1cc2c(c(NC(=O)NS(=O)(=O)c3cc(C(C)(C)O)co3)c1-c1ccnc(OC3CCN(C)CC3)c1)CCC2`, the pIC50 in [10] was ≥ 6.60.

Consider `O=C(Nc1c2c(cc3c1CC3)CCC2)NS(=O)(=O)c1cnn2c1OCCC2`, for which the pIC50 in the data set with THP-1 [18] was 6.70.

For the compound `NS(=O)(=O)c1cccc(/C=C2\SC(=S)N(CC3CCCCC3)C2=O)c1`, in data set [19], the negative-log IC50 (pIC50) is 6.05.

As for `CCc1c(-c2cccc(F)c2)c(C(C)C)nn(CC(=O)Nc2ncncc2F)c1=O`, the negative logarithm of the IC50 (pIC50) in data set [20] was 4.45.

In the case of `CC(C)OC(=O)c1nc(Nc2c3c(cc4c2CCC4)CCC3)cs1`, the pIC50 in data set [21] was > 6.00.

(Values after ChEMBL document CHEMBL5390258, “Recent Progress and Prospects of Small Molecules for NLRP3 Inflammasome Inhibition” (J Med Chem, 2023).)
